SMILES strings stand for the structures.

Usually IC50 stands for the midpoint of a concentration-inhibition curve. Low readings indicate inhibition by little substance, high ones a need for much substance.

One experiment deals with HCT-116. In words: Cytotoxicity against human HCT116 cells after 24 hrs by Alamar Blue assay. In kind it is functional, cell-based. Particulars: HCT-116, 24 h.
Experiment [1] is described as follows: Inhibition of RabGGTase in human HeLa cells after 6 hrs by reprenylation assay. The format is cell-based.
The next experiment relates to A2780. In words: Cytotoxicity against human A2780 cells after 24 hrs by Alamar Blue assay. The format is functional, cell-based. Particulars: A2780, 24 h. (Alamar Blue is a resazurin reagent that responds to reducing activity.)
Another experiment has as its system HeLa. The experiment is described as follows: Cytotoxicity against human HeLa cells after 24 hrs by Alamar Blue assay. The format is functional, cell-based.
The nature of experiment [2]: Inhibition of GGTase 1 using NBD-FPP as substrate after 10 mins by solution based fluorometric assay.
Another experiment has as its system DU-145. The experiment is described as follows: Cytotoxicity against human DU145 cells after 24 hrs by Alamar Blue assay. Particulars: DU-145, 24 h. The format is functional, cell-based.
A further experiment deals with PBMC. The experiment is described as follows: Cytotoxicity against human PBMC cells after 24 hrs by Alamar Blue assay. In kind it is cell-based.
A short description of experiment [3]: Inhibition of RabGGTase using NBD-FPP as substrate after 5 mins by fluorometric assay.
The subject of the next experiment is A549. In words: Cytotoxicity against human A549 cells after 24 hrs by Alamar Blue assay. The format is functional, cell-based. Conditions: A549, 24 h.
The nature of experiment [4]: Inhibition of RabGGTase using [3H]GGPP as substrate after 1 hr by scintillation proximity assay. For orientation: In a scintillation proximity assay essentially only radioactivity close to the scintillant gives light.
Experiment [5] in a line: Inhibition of FTase using NBD-GPP as substrate after 10 mins by solution based fluorometric assay.

As for `COc1ccc(S(=O)(=O)N2Cc3cc(C#N)ccc3N(Cc3cncn3C)C[C@H]2Cc2ccc(OC(=O)NCc3ccccc3)cc2)cc1`, the IC50 with HCT-116 was 231 nM; in experiment [1] it was 81 nM; in the experiment on A2780, 130 nM; in the experiment with HeLa it was 151 nM; in [2] it was more than 99500 nM; with DU-145, 142 nM. The figures for the concentration for half-maximal inhibition (IC50) (in the experiment with PBMC; in experiment [3]; with A549) were more than 10000 nM, 72.2 nM and 338 nM, respectively.

Take `CCN(CC)C(=O)Oc1ccc(C[C@@H]2CN(Cc3cncn3C)c3ccc(C#N)cc3CN2S(=O)(=O)c2ccc(OC)cc2)cc1`: the IC50 in the experiment on HCT-116 is 75 nM; in experiment [1], 343 nM; in the experiment on A2780, 43 nM; with HeLa, 745 nM; in experiment [2], 2020 nM; in the experiment with PBMC, more than 10000 nM. The IC50 in experiment [4] was found to be 123 nM; with A549, 412 nM.

As for `COc1ccc(S(=O)(=O)N2Cc3cc(C#N)ccc3N(Cc3cncn3C)C[C@H]2Cc2ccc(OS(=O)(=O)C(F)(F)F)cc2)cc1`, the IC50 in [1] was more than 10000 nM; with A2780, 92 nM; in the experiment with HeLa, 1960 nM; in experiment [2], more than 99500 nM; in the experiment with DU-145 it was 3100 nM; in the experiment on PBMC, more than 10000 nM. Moreover, the IC50 in [3] turned out to be 18600 nM; in [4] it was 1500 nM; in the experiment with A549, 2220 nM.

For `COc1ccc(S(=O)(=O)N2Cc3cc(C#N)ccc3N(Cc3cncn3C)C[C@H]2Cc2ccc(-c3cccnc3)cc2)cc1`, the IC50 amounted to 308 nM in the experiment with HCT-116; 466 nM in [1]; 399 nM with A2780; 409 nM in the experiment with HeLa; 3630 nM in experiment [2]; 413 nM in the experiment on DU-145. For the same compound, the IC50 in experiment [5] is 4.3 nM; with PBMC it was more than 10000 nM; in experiment [3], 353 nM; in [4], 11 nM; in the experiment with A549, 442 nM.

`COc1ccc(S(=O)(=O)N2Cc3cc(C#N)ccc3N(Cc3cncn3C)C[C@H]2Cc2ccc(O)cc2)cc1`: the IC50 in the experiment on HCT-116 is 172 nM; in experiment [1], 115 nM; in the experiment on A2780, 100 nM; with HeLa it was 130 nM; in experiment [2], more than 99500 nM; in the experiment with DU-145 it was 162 nM. Besides, the IC50 in experiment [5] is 5.2 nM; in experiment [3], 1010 nM; in experiment [4], less than 4 nM; with A549, 315 nM.

For the compound `COc1ccc(S(=O)(=O)N2Cc3cc(C#N)ccc3N(Cc3cncn3C)C[C@H]2Cc2ccc(OCC=C(C)C)cc2)cc1`, the IC50 in the experiment with HCT-116 is 112 nM; in experiment [1], 43 nM; in the experiment on A2780, 116 nM; in the experiment with HeLa it was 59 nM; in experiment [2], more than 99500 nM; in the experiment with DU-145, 90 nM. Moreover, the IC50 in experiment [5] stood at 15 nM; in the experiment on PBMC, 8030 nM; in [3], 39 nM; in experiment [4] it was 63 nM; in the experiment with A549 it was 74 nM.

`COc1ccc(S(=O)(=O)N2Cc3cc(C#N)ccc3N(Cc3cncn3C)C[C@H]2Cc2ccc(OCc3ccccc3)cc2)cc1`: the IC50 in the experiment with HCT-116 is 1050 nM; in the experiment with A2780 it was 265 nM; with HeLa it was 372 nM; in experiment [2], more than 99500 nM; in the experiment with DU-145, 756 nM; in [5], 99.3 nM. Further, the half-inhibitory concentration (IC50) in the experiment on PBMC was more than 10000 nM; in experiment [3], 441 nM; in [4], 181 nM; with A549, 746 nM.

Consider `CCCCCCNC(=O)Oc1ccc(C[C@@H]2CN(Cc3cncn3C)c3ccc(C#N)cc3CN2S(=O)(=O)c2ccc(OC)cc2)cc1`, for which the IC50 with HCT-116 is 355 nM; in experiment [1], 77.3 nM; with A2780 it was 233 nM; in experiment [2], more than 99500 nM; in the experiment with DU-145 it was 228 nM; in experiment [3] it was 243 nM. The IC50 in experiment [4] is 15.5 nM; with A549, 289 nM.

The values are drawn from ChEMBL document CHEMBL2169825, “Development of selective, potent RabGGTase inhibitors” (J Med Chem, 2012).
